Experimental data as given in paper PMC12376758, “Restoration of CB1 receptor function in hippocampal GABAergic neurons rescues memory deficits in Huntington’s disease models” (Translational Neurodegeneration, 2025).
Read-outs that look alike come from different tables or passages of the source.

Experiments:
CA1 pyramidal neurons [1] = experiment: Ex vivo patch-clamp: depolarization-induced suppression of inhibition (DSI); format: in vivo, mouse; conditions: hippocampal slices of WIN-treated R6/1 mice, n = 17 neurons
young rats = conditions: chronic WIN; cited from earlier work
CA1 pyramidal neurons [2] = experiment: Golgi-Cox dendritic spine density analysis; format: in vivo, mouse; conditions: R6/1 mice, WIN 1 mg/kg i.p. sub-chronic
Experimental: Golgi-Cox impregnation was performed using the Rapid Golgistain Kit (FD Neurotechnologies, Columbia, MD) following the manufacturer's instructions. Mice were euthanized by cervical dislocation, and brains were rapidly removed. The two hemispheres were separated and incubated in a solution of A/B for 2 weeks. After this period, the brains were transferred to solution C for an additional 7 days. The brains were then processed using a cryostat to obtain 100-μm sections, which were mounted on gelatin-coated slides and left to dry for 24 h.
The sections were stained with the solutions provided in the kit and subsequently dehydrated before being mounted with DPX. Bright field images were acquired using a Leica AF6000 epifluorescence microscope with a × 63 numerical aperture objective for dendritic spine analysis. Segments of apical dendrites from hippocampal CA1 pyramidal neurons were selected for analysis. Dendritic spine density was manually quantified using the ImageJ Plug-in Cell Counter. Spines were marked in the appropriate focal plane preventing double counting, and only fully impregnated pyramidal neurons with their soma entirely within the thickness of the section were included. Dendritic segments ranging from 20 to 60 μm in length were analyzed. At least 60 dendrites per group from at least three mice per genotype were counted.

adult rats = system: adult rats; design: method as in PMID 12888772; conditions: chronic treatment; cited from earlier work
WT mice [3] = experiment: Novel object recognition task (NORT) in WT mice (WIN dose selection); format: in vivo, mouse; conditions: 13-week-old WT mice, WIN 1 and 4 mg/kg i.p., 10 days
Experimental: Exploration in the NORT followed the same conditions as described for the NOLT. Mice were first habituated to the arena, without objects, for 15 min on two consecutive days. During this phase, spontaneous locomotor activity and time/distance spent in the periphery versus the center of the arena were measured. On the third day (NORT training), mice were allowed to explore two identical objects (B and B′) for 10 min before being returned to their home cage. Twenty-four hours later (NORT testing), one of the familiar objects (B) and a new object (C) were placed in the same location as during the training session, and the mice were allowed to explore for 5 min. The arena was thoroughly cleaned between trials to prevent odor contamination. Animal movements were tracked and recorded with the SMART® Junior software (Panlab, Spain). Exploration times were recorded and used to calculate the discrimination index as indicated above.
Given the observed reduction of CB1R in the R6/1 hippocampus, we hypothesized that pharmacological activation of the remaining CB1Rs could mitigate HD-related memory decline.

R6/1 mice = experiment: Y-maze spontaneous alternation in R6/1 mice; format: in vivo, mouse; conditions: WIN 1 mg/kg i.p. 10 days
Experimental: To selectively induce CB1R expression in GABAergic neurons, we generated a plasmid for AAV8-mDlx5/6-CNR1. Infectious AAV viral particles were developed by the Viral Vector Production Unit (UPV) of the Universitat Autònoma de Barcelona (UAB). WT and R6/1 mice, aged 10 weeks, were anesthetized with ketamine hydrochloride/xylazine hydrochloride (i.p.; 100 and 10 mg/kg, respectively, Merck) and injected bilaterally in the hippocampus with AAV8-mDlx-CB1R or AAV8-mCherry (Vector Biolabs) (viral concentrations ranging from 1.8 × 10^9 to 1.5 × 10^9). The injection coordinates (in mm) from bregma (anteroposterior and lateral) and from skull (dorsoventral) were as follows: anteroposterior: − 2.0; lateral ± 1.25, and dorsoventral: − 1.3 (CA1). AAVs were injected for over 2 min, and the cannula was left in place for an additional 5 min to allow complete diffusion of the virus before being slowly retracted. Mice were monitored for 1 h post-injection and then returned to the housing facility for 3 weeks. […] For double-positive quantification, Pearson’s correlation coefficient was calculated using ImageJ2. […]
Spontaneous working memory was assessed using the Y-maze test. […] An arm entry was recorded when all four paws of the mouse were within the arm. […] Spontaneous alternation was calculated as the ratio of actual alternations to the total possible alternations, and the result was expressed as a percentage.

[4] = system: Hdh^Q7/Q111 mutant KI mice; experiment: NOLT, NORT and Y-maze in Hdh^Q7/Q111 KI mice; format: in vivo, mouse; conditions: 6 months, sub-chronic WIN 1 mg/kg i.p.
Experimental: Spontaneous working memory was assessed using the Y-maze test. Mice were habituated to the testing room 1 h prior to the session. During the 8-min trial, each mouse was placed in the center of the maze and allowed to move freely. An arm entry was recorded when all four paws of the mouse were within the arm. The apparatus was cleaned thoroughly after each trial. Alternation was defined as successive entries into all three arms in an overlapping triplet sequence. Spontaneous alternation was calculated as the ratio of actual alternations to the total possible alternations, and the result was expressed as a percentage.
NOLT was conducted in a quadrangular open field (40 cm × 40 cm, 40 cm high) with a light intensity of 40 lx at controlled room conditions (19–22 °C, 40%–60% humidity). […] During this phase, spontaneous locomotor activity, as well as the time and the distance spent in the periphery versus the center, were measured. […] Animal movements were tracked and recorded using the SMART® Junior software (Panlab, Spain). Exploration times were recorded to calculate the discrimination index as follows: discriminationindex=Timeexploringnovelobject-Timeexploringfamiliarobject/Timeexploringbothobjects×100\%
Exploration in the NORT followed the same conditions as described for the NOLT. […] Animal movements were tracked and recorded with the SMART® Junior software (Panlab, Spain). […]

WT mice [5] = experiment: Open field test in WT mice (WIN dose selection); format: in vivo, mouse; conditions: 13-week-old WT mice, WIN 1 and 4 mg/kg i.p., 10 days
Experimental: NOLT was conducted in a quadrangular open field (40 cm × 40 cm, 40 cm high) with a light intensity of 40 lx at controlled room conditions (19–22 °C, 40%–60% humidity). Mice were first habituated to the arena, which was devoid of objects but included spatial cues attached to the walls, for 15 min per session over two consecutive days. During this phase, spontaneous locomotor activity, as well as the time and the distance spent in the periphery versus the center, were measured. On the third day (NOLT training), two identical objects (A and A′) were placed in adjacent corners of the arena, and mice were allowed to explore for 10 min. […] Animal movements were tracked and recorded using the SMART® Junior software (Panlab, Spain). Exploration times were recorded to calculate the discrimination index as follows: discriminationindex=Timeexploringnovelobject-Timeexploringfamiliarobject/Timeexploringbothobjects×100\%
Exploration in the NORT followed the same conditions as described for the NOLT. […] During this phase, spontaneous locomotor activity and time/distance spent in the periphery versus the center of the arena were measured. […] Animal movements were tracked and recorded with the SMART® Junior software (Panlab, Spain). Exploration times were recorded and used to calculate the discrimination index as indicated above. […]

CB1R [6] = format: in vivo, mouse; conditions: for CB1R protein level, Western blot: total hippocampal lysates, WIN 1 mg/kg i.p. 10 days
CB1R [7] = system: CB1R; design: method as in PMID 36979335; conditions: rat model of cerebral ischemia; cited from earlier work
[8] = system: rat model of cholinergic degeneration; design: method as in PMID 39489624; conditions: low-dose WIN; cited from earlier work
BDNF = experiment: Western blot of BDNF in hippocampal lysates; format: in vivo, mouse; conditions: R6/1 mice, WIN 1 mg/kg i.p. 10 days

Cc1c(C(=O)c2cccc3ccccc23)c2cccc3c2n1[C@H](CN1CCOCC1)CO3 [WIN, WIN 55212–2]
DSI: suppression of IPSC amplitude after 5-s depolarizing step (-70 to 0 mV) (CA1 pyramidal neurons [1]): 52.70% ± 5.65 | cytoskeletal remodeling in the hippocampus (young rats): increased dendritic thickness and branching | apical dendritic spine density reduction in CA1 pyramidal neurons (CA1 pyramidal neurons [2]): reversed | performance in novel object recognition test (adult rats): did not affect | performance in open field test (adult rats): did not affect | recognition memory (NORT) (WT mice [3]): no differences | spontaneous alternation performance (Y-maze) (R6/1 mice; presymptomatic stage (11 weeks, Fig. S4d)): significantly enhanced | spontaneous alternation performance (Y-maze) (R6/1 mice; symptomatic stage (13 weeks, Fig. 3d)): significantly enhanced | memory deficits (NOLT, NORT, Y-maze) [4]: restored | time spent in the periphery and the center of the open field arena (WT mice [5]): No adverse effects | total distance traveled during the open field test (WT mice [5]): No adverse effects | CB1R levels, Western blot (CB1R [6]; Hdh^Q7/Q111 KI mice 6 months, hippocampal lysates, sub-chronic WIN): trend of increase | CB1R protein level, Western blot (CB1R [6]; R6/1 mice 13 weeks): restored | CB1R protein level, Western blot (CB1R [6]; WT mice): significantly modulated | CB1R protein levels in the hippocampus (CB1R [7]): significantly increased | CB1R activity in the cortex [8]: increase | cognitive performance [8]: improved | BDNF protein level (BDNF): restored
